Results from patent publication US11065616B2, “Methods of making microfluidic devices” (KING ABDULLAH UNIVERSITY OF SCIENCE AND TECHNOLOGY, priority 2015, dated 2021).

Test system: Hela cells
Assay: Cytotoxicity of Doxorubicin concentrations generated by the microfluidic gradient generator (CCK-8)
Assay type: cell-based, Human
Settings: gradient 100-0 μg/ml DOX at the outlet ports, 24 h incubation, surface modified channels
Procedure: Hela cells were cultured in EMEM media supplemented with 10% fetal bovine serum (FBS) and 1% penicillin-streptomycin at 37° C. in a 5% CO2 humidified atmosphere. After cell detachment, the cell suspension was centrifuged, the pallet was collected, and cells were counted for further plating. Hela cells were seeded in 96 well plates at a density of 5×10^3/well. Alter 24 h, cells were treated with five different concentrations of the anticancer drug Doxorubicin (DOX) generated by the microfluidic gradient generator at a flow rate of 8.5 μl/min. The incubation of cells with test samples lasts for 24 h at 37° C. Then, the culture medium was discarded, and 100 μL of CCK8 solution in MEM media were added to each well and incubated for 4 h in darkness. The absorbance values were measured at […] using the xMark™ microplate absorbance spectrophotometer.
Two types of 3D printer resins (1) FormLabs clear and (2) Spot-Elastic were used to build microfluidic devices. The media for cell cultures were injected by passing the EMEM media through the reported microfluidic gradient generator, Both the inlets were fed with media for the first experiment. […] Doxorubicin was introduced to the cell culture after surface modification, and only one of the inlets was fed with Doxorubicin incorporated EMEM media and the other was fed with normal (Doxorubicin-free) EMEM media. […]

## COc1cccc2c1C(=O)c1c(O)c3c(c(O)c1C2=O)C[C@@](O)(C(=O)CO)C[C@@H]3O[C@H]1C[C@H](N)[C@H](O)[C@H](C)O1 [DOX, Doxorubicin]
  cell viability versus DOX concentration (in words): higher viability with a decrease in concentration of DOX
